According to patent publication US6248718A, “Lesion-directed dry dosage forms of antibacterial agents for the treatment of acute mucosal infections of the oral cavity” (priority 1999, dated 2001):
Converted amounts (≈) assume the structure as drawn. “And” between values parts separate entries of the source, which are not always exact repeats. Equal values may be shown once. “Also recorded” adds a separate entry of the source. Where a name gives a salt, the structure may show the parent alone. Read-outs that look alike come from different tables or passages of the source.

Tests used:
[1] = cited from earlier work
[2] = Topical dry dosage treatment of minor aphthous ulcers, gingivitis and periodontal infections; format: in vivo, human; details: 50 mg dry dosage form, four times a day
Description: The administration of the medicament depends upon the type of infection to be treated and the type and dosage of the antibacterial agent used. The appropriate antibacterial agent, dosage and treatment regimen can readily be determined by someone having ordinary skill in this art. […] Thorough tooth cleaning is advised prior to introduction of the medicament to an infected area.

[3] = system: human salivary microbial flora; experiment: Minimal total inhibition concentration of tetracyclines for human salivary microbial flora (Example X); format: cell-based; details: for bacterial growth from treated saliva: 1 h, aerobic blood agar
Protocol: (§1) Source of human salivary flora: undiluted saliva freshly collected from the mouth of a healthy adult who had refrained from fluid or food intake for three hours after breakfast prior to saliva collection.
Antibacterial agent: Doxycycline cyclate (a tetracycline) for injection USP, equivalent to 100 mg Doxycycline (Fugusawa USA, Inc., Deerfield, IL 60015-2548. Procedure:
1) An adequate amount of saliva was added to the vial of doxycycline to make a total volume of suspension of 3.1 ml, equivalent to a 32 mg/ml concentration of the antibacterial agent.
2) An aliquot of 0.2 ml of the 32 mg/ml doxycycline salivary solution was pipetted out for serial double dilutions in saliva in test tubes to the final concentrations of 32, 16, 8, 4, 2, 1, 0.5, 0.25 and 0.12 mg of doxycycline per ml.
3) All tubes containing saliva with different concentrations of doxycycline were incubated in 37 degrees Celsius for one hour.
4) At the end of the one-hour incubation, 0.1 ml of the salivary doxycycline solution was pipetted from each test tube and inoculated on the surface of a blood agar plate. An aliquot of 0.1 ml saliva sample containing no antibacterial agent was spread on the surface of a blood agar plate as control.
(§2) 5) After 18 hours of incubation in 37 degrees Celsius aerobically, the growth on the blood agar plates was inspected and compared for the presence or absence of bacterial colonies.

[4] = Local concentration of oxytetracycline hydrochloride in saliva after a 50 mg troche; details: for peak concentration locally at the site of the ulcer: assuming troche is dissolved in 0.1 ml of saliva
Description: The final concentrations of oxytetracycline in the control standard nutrient broth were 0.25 mcg/ml, 0.5 mcg/ml, 1.0 mcg/ml, 2.0 mcg/ml, 4.0 mcg/ml, and 8.0 mcg/ml. The final dilutions of saliva sample were 1/50,000, 1/100,000, 1/200,000, 1/400,000, 1/800,000 and 1/1,600,000 for the peak concentration test tubes and 1/4,000. 1/8,000, 1/16,000 and 1/32,000 for the trough concentration test tubes. The Staphylococcus aureus (ATCC 29213) was also used as the standard test microorganism.

[5] = cited from earlier work; remark: listed apart in the source
[6] = system: human salivary microbial flora; experiment: Minimal total inhibition concentration of ciprofloxacin for human salivary microbial flora (Example XI); format: cell-based; details: 1 h, aerobic blood agar
Protocol: as §1
Antibacterial agent: Cipro (a member of the quinolone group) I.V. 200 mg in 20 ml (1%) for intravenous infusion. […] Division Bayer Corporation. Procedure:
1) An aliquot of 1 ml of the Cipro solution, 1%, was added to 1.5 ml to make a total volume of 2.5 ml, equivalent to a 4 mg/ml concentration of the antibacterial agent in saliva.
2) An aliquot of 0.2 ml of the 4 mg/ml Cipro salivary solution was pipetted out for serial double dilutions in saliva in test tubes to the final concentrations of 4, 2, 1, 0.5, 0.25 and 0.12 mg of Cipro per ml, respectively.
3) All tubes containing saliva with different concentrations of Cipro were incubated in 37 degrees Celsius for one hour.
4) At the end of the one-hour incubation, 0.1 ml of the salivary Cipro solution was pipetted from each test tube and inoculated on the surface of a blood agar plate. An aliquot of 0.1 ml saliva sample containing no Cipro was spread on the surface of a blood agar plate as control.
as §2

[7] = Local concentration of penicillin in saliva after a troche containing 50 mg penicillin G; format: in vivo, human; details: assuming troche is dissolved in 0.1 ml of saliva
Protocol: The local concentration of penicillin in the saliva was determined as follows. […] This loculated pocket of saliva was not swallowed and was not to be diluted with excess saliva from other parts of the mouth for one hour. Two samples were taken for assay to determine the peak and trough local concentrations of penicillin during the one-hour duration of medicinal treatment. At the time when the troche was completely dissolved and one hour later, aliquots of 10 microliters were pipetted from this pocket of saliva solution at the site of medication, representing the peak level and the trough level of antibiotic concentration, and transferred into 10 ml of distilled water to make a 1:1.000 dilution and into 1 ml of distilled water to make a 1:100 dilution, respectively. The diluted saliva antibiotic solutions were passed through a sterile bacteria-filter to remove any bacterial or fungal contaminants of the oral flora.
For determination of the peak concentration, 1 ml of the bacteria-free filtrate was further diluted with 9 ml of nutrient broth to achieve a 1:10,000 dilution of the saliva. Then a serial two-fold dilution was made of this 1:10,000 diluted saliva sample with an equal volume of nutrient broth in a roll of test tubes to obtain a series of 1 ml aliquots of nutrient broth in which the saliva was diluted to 20,000, 40,000, 80,000, 160,000, 320,000, 640,000, 1,280,000 and 2,560,000 folds respectively. […] Thus the final dilutions of the saliva sample were in the range of 40,000 to 5,120,000 folds.
For determining the trough concentration, the entire 1 ml of the 1:100 diluted saliva filtrate was used to make the serial dilutions so that the final dilutions of saliva sample were in the range of 4,000 to 256,000 folds in the final test culture.
As control standards, a series of test tubes containing 1 ml of nutrient broth with varying concentrations of penicillin G potassium salt ranging from 0.1 units to 10 units/ml were similarly mixed with an equal volume of nutrient broth freshly inoculated with the standard tubes of Staphylococcus aureus. Both the test and control standard tubes were incubated at 37° C. for 18 hours. Among the test tubes showing no gross evidence of bacterial growth, the one containing the highest dilution of saliva and the one containing the least amount of penicillin G were considered as having the identical concentration of penicillin, i.e. the MIC of the staphylococcus aureus.

Which peak serum level ([1]; intravenous injection of 100 mg) does the source give for C[C@H]1c2cccc(O)c2C(O)=C2C(=O)[C@]3(O)C(O)=C(C(N)=O)C(=O)[C@@H](N(C)C)[C@@H]3[C@@H](O)[C@@H]21 [doxycycline hyclate] here?
Its peak serum level is 2.5 µg/mL.

What about the peak serum level ([1]; intravenous injection of 200 mg) of the same compound?
Its peak serum level is 2.6 µg/mL.

What about the peak serum level ([1]; oral 200 mg, fasting adults) of the same compound?
The peak serum level was 2.6 to 3 µg/mL.

What about the peak serum concentration ([1]; oral ingestion of 100, fasting adults) of the same compound?
The peak serum concentration was 1.5 to 2.1 µg/mL.

What about the “patients with complete relief of pains within about 48 hours” value [2] of the same compound?
Its value is “over 90%”.

And the “time to complete relief of pains” value [2]?
Its value is no more than 48 h.

And the “bacterial growth from treated saliva” value ([3]; 0.5 mg/ml)?
The value was “A few surviving or uninhibited bacteria grew into colonies”.

What about the “bacterial growth from treated saliva” value ([3]; 0.5, 0.25 and 0.12 mg/ml) of the same compound?
Its value is “Varying numbers of bacterial colonies were observed”.

What about the “bacterial growth from treated saliva” value ([3]; 1, 2, 4, 8, 16, 32 mg/ml) of the same compound?
The value was “No bacterial colonies were observed; also recorded: either destroyed or totally inhibited”.

What about the MIC ([3]; read-out: minimal total inhibition concentration, human salivary microbial flora) of the same compound?
Its MIC is roughly 1000 mg/L (≈ 2250 µM).

With CN(C)[C@@H]1C(=O)C(C(N)=O)=C(O)[C@@]2(O)C(=O)C3=C(O)c4c(O)cccc4[C@@](C)(O)[C@H]3[C@H](O)[C@@H]12 [oxytetracycline hydrochloride] as the compound, how does the “trough concentration in saliva” value ([4]; 50 mg oxytetracycline hydrochloride troche, one hour, 60 min, hydrochloride) read?
The value was 8 mg/mL.

What about the “initial peak concentration in saliva” value ([4]; 50 mg oxytetracycline hydrochloride troche, two subjects, hydrochloride) of the same compound?
The value was 800 mg/mL and 400 to 800 mg/mL.

What about the “peak concentration locally at the site of the ulcer” value [4] of the same compound?
The value was 400 to 800 mg/mL.

For CN(C)[C@@H]1C(=O)C(C(N)=O)=C(O)[C@@]2(O)C(=O)C3=C(O)c4c(O)cccc4[C@@](C)(O)[C@H]3C[C@@H]12 [tetracycline HCL], which “patients with complete relief of pains within about 48 hours” value [2] is on record?
The value was “over 90%”.

And the “time to complete relief of pains” value [2]?
Its value is no more than 48 h.

With O=C1CCC(N2C(=O)c3ccccc3C2=O)C(=O)N1 (centres unmarked) [Thalidomide] as the compound, how does the effectiveness of treatment ([5]; earlier treatments of oral infections / aphthous ulcers) read?
Its effectiveness of treatment is “effective in some HIV-infected patients”.

What about the adverse effect ([5]; literature) of the same compound?
The adverse effect was “teratogenic”.

With O=C(O)c1cn(C2CC2)c2cc(N3CCNCC3)c(F)cc2c1=O [ciprofloxacin] as the compound, how does the “bacterial growth from treated saliva” value ([6]; 0.5 mg/ml) read?
Its value is “A few surviving or uninhibited bacteria grew into colonies”.

And the “bacterial growth from treated saliva” value ([6]; 0.5, 0.25 and 0.12 mg/ml)?
Its value is “Varying numbers of bacterial colonies were observed”.

And the “bacterial growth from treated saliva” value ([6]; 1, 2 and 4 mg/ml)?
The value was “either destroyed or totally inhibited”.

What about the “bacterial growth from treated saliva” value ([6]; 1, 2 and 4 mg/ml, listed as Cipro) of the same compound?
The value was “No bacterial colonies were observed”.

Which results are given for CCCCCCCCCCCCCCCCCC(=O)O [magnesium stearate]?
initial concentration at the ulcer [7]: 10 mg/mL; peak concentration locally at the site of the ulcer [4]: 10 mg/mL
